# Test results as given in patent publication US20260053861A1, “CELL COMPOSITIONS AND METHODS OF USING THE SAME” (THE REGENTS OF THE UNIVERSITY OF CALIFORNIA, priority 2022, published 2026).
# Counter-ions that a name gives are not always drawn. Like-named read-outs stand apart in the source and are kept apart here.
# System: hPSC-SCs
# [1] = HTS viability of hPSC-SCs in the presence of 30 mM glucose, Prestwick library, Table S4
Molecule,z.score.t,z.score.t [1]
CC(=O)OCC(=O)[C@H]1CC[C@H]2[C@@H]3CC[C@H]4C[C@H](O)CC[C@]4(C)[C@H]3C(=O)C[C@]12C [Alfadolone acetate],0.3651,–
CCCNCC(O)COc1ccccc1C(=O)CCc1ccccc1 (centres unmarked) [Propafenone hydrochloride],–,1.211
COC(=O)C1=C(C)NC(C)=C(C(=O)OCC(C)C)C1c1ccccc1[N+](=O)[O-] (centres unmarked) [Nisoldipine],–,−0.5992
CCCCc1ccc2[nH]c(NC(=O)OC)nc2c1 [Parbendazole],−1.543,–
Cc1cc(C(C)(C)C)c(O)c(C)c1CC1=NCCN1 [Oxymetazoline hydrochloride],–,−0.7524
CNCCCC1c2ccccc2C=Cc2ccccc21 [Protriptyline hydrochloride],–,−0.3678
CC1(C)OC(=O)NC1=O [Dimethadione],–,−0.03362
Ketanserin tartrate hydrate,–,−1.137
Cc1cc(NC(=O)C2=C(O)c3ccccc3S(=O)(=O)N2C)no1 [Isoxicam],–,1.24
CC(=O)O[C@H]1C[C@H](O[C@H]2[C@@H](O)C[C@H](O[C@H]3[C@@H](O)C[C@H](O[C@H]4CC[C@@]5(C)[C@H](CC[C@@H]6[C@@H]5C[C@@H](O)[C@]5(C)[C@@H](C7=CC(=O)OC7)CC[C@]65O)C4)O[C@@H]3C)O[C@@H]2C)O[C@H](C)[C@H]1O[C@@H]1O[C@H](CO)[C@@H](O)[C@H](O)[C@H]1O [Lanatoside C],−2.334,–
CCCNC(C)C(=O)Nc1ccccc1C (centres unmarked) [Prilocaine hydrochloride],–,1.984
CN(C)[C@@H]1C(O)=C(C(=O)NCNCCCC[C@H](N)C(=O)O)C(=O)[C@@]2(O)C(O)=C3C(=O)c4c(O)cccc4[C@@](C)(O)[C@H]3C[C@@H]12 [Lymecycline],–,−0.5745
CC[C@H](C)[C@H]1O[C@]2(CC[C@@H]1C)C[C@@H]1C[C@@H](C/C=C(\C)[C@@H](O[C@H]3C[C@H](OC)[C@@H](O[C@H]4C[C@H](OC)[C@@H](O)[C@H](C)O4)[C@H](C)O3)[C@@H](C)/C=C/C=C3\CO[C@@H]4[C@H](O)C(C)=C[C@@H](C(=O)O1)[C@]34O)O2 [Ivermectin],−1.866,–
C[C@@H]1CC[C@@]2(NC1)O[C@H]1C[C@H]3[C@@H]4CC=C5C[C@@H](O)CC[C@]5(C)[C@H]4CC[C@]3(C)[C@H]1[C@@H]2C [Solasodine],0.9178,–
CC(C)[N+](C)(CCOC(=O)C1c2ccccc2Oc2ccccc21)C(C)C [Propantheline bromide],–,0.9525
CN(C)[C@@H]1C(O)=C(C(N)=O)C(=O)[C@@]2(O)C(O)=C3C(=O)c4c(O)cccc4[C@@](C)(O)[C@H]3[C@H](O)[C@@H]12 [Oxytetracycline dihydrate],–,−0.09426
CC(=O)/N=c1/sc(S(N)(=O)=O)nn1C [Methazolamide],–,−0.3678
CN1Cc2c(N)cccc2C(c2ccccc2)C1 (centres unmarked) [Nomifensine maleate],–,−0.004573
CN[C@@H]1[C@H](O)[C@H](NC)[C@H]2O[C@@]3(O)C(=O)C[C@@H](C)O[C@H]3O[C@@H]2[C@H]1O [Spectinomycin dihydrochloride],–,1.101
COC(=O)[C@H]1[C@H]2C[C@H]3c4[nH]c5ccccc5c4CCN3C[C@@H]2CC[C@@H]1O.Cl [Corynanthine hydrochloride],–,1.095
CC(C)NC[C@@H](O)c1ccc(O)c(O)c1.O=C(O)C(O)C(O)C(=O)O [(+)-Isoproterenol (+)-bitartrate salt],–,0.1019
CC(C)(C)NCC(O)COc1cccc2c1CC(O)C(O)C2 (centres unmarked) [Nadolol],–,0.7349
"NC(N)=NOCC[C@H](N)C(=O)O.O.O=S(=O)(O)O [Canavanine sulfate monohydrate (L, +)]",1.095,–
NC[C@H]1O[C@H](O[C@H]2[C@H](O)[C@@H](O[C@H]3O[C@H](CO)[C@@H](O)[C@H](N)[C@H]3O)[C@H](N)C[C@@H]2N)[C@H](N)C[C@@H]1O [Tobramycin],–,−0.3936
CC(C)(C)NCC(O)c1ccc(O)c(CO)c1 (centres unmarked) [Salbutamol],–,0.5041

Molecule,z.score.t,z.score.t [1]
CN1C[C@H](CO)C=C2c3cccc4[nH]cc(c34)C[C@H]21 [Lysergol],0.1979,–
CO[C@H]1C[C@H](O[C@H]2[C@H](C)[C@@H](O[C@@H]3O[C@H](C)C[C@H](N(C)C)[C@H]3O)[C@@H](C)C[C@@]3(CO3)C(=O)[C@H](C)[C@@H](O)[C@@H](C)[C@@H](C)OC(=O)[C@@H]2C)O[C@@H](C)[C@@H]1O [Oleandomycin phosphate],–,−0.5417
[H]/N=C(\N/C(=N/[H])Nc1ccc(Cl)cc1)NC(C)C [Proguanil hydrochloride],–,−0.1187
COc1ccc(CN(CCN(C)C)c2ccccn2)cc1 [Pyrilamine maleate],–,0.07016
CCn1cc(C(=O)O)c(=O)c2cnc(N3CCCC3)nc21 [Piromidic acid],–,0.453
Cc1cnc(C(=O)NCCc2ccc(S(=O)(=O)NC(=O)NC3CCCCC3)cc2)cn1 [Glipizide],–,1.43
Cc1nc2n(c(=O)c1CCN1CCC(c3noc4cc(F)ccc34)CC1)CCCC2 [Risperidone],0.02517,–
CN(CCCCCCCCCCN(C)C(=O)Oc1cccc([N+](C)(C)C)c1)C(=O)Oc1cccc([N+](C)(C)C)c1 [Demecarium bromide],1.211,–
O=C1NCN(c2ccccc2)C12CCN(CCCC(c1ccc(F)cc1)c1ccc(F)cc1)CC2 [Fluspirilen],–,−1.399
CCOC(=O)c1ccc(OC(=O)CCCCCN=C(N)N)cc1.CS(=O)(=O)O [Gabexate mesilate],–,0.5136
CN1CCOC(c2ccccc2)c2ccccc2C1 (centres unmarked) [Nefopam hydrochloride],–,−0.3733
CC[C@@H](CO)NCCN[C@@H](CC)CO [Ethambutol dihydrochloride],–,1.13
c1ccc(CN(CC2=NCCN2)c2ccccc2)cc1 [Antazoline hydrochloride],–,−0.004573
O=C1C(CC[S+]([O-])c2ccccc2)C(=O)N(c2ccccc2)N1c1ccccc1 (centres unmarked) [Sulfinpyrazone],–,0.3922
C#C[C@]1(O)CC[C@H]2[C@@H]3CCC4=CCCC[C@@H]4[C@H]3CC[C@@]21C [Lynestrenol],–,−1.847
NC(CO)C(=O)NNCc1ccc(O)c(O)c1O (centres unmarked) [Benserazide hydrochloride],–,−0.2359
CC(C)NCC(O)c1ccc2ccccc2c1 (centres unmarked) [Pronethalol hydrochloride],–,−0.4684
O=C(Nc1ccccc1)OCC(CN1CCCCC1)OC(=O)Nc1ccccc1 (centres unmarked) [Diperodon hydrochloride],–,−0.7776
Br.C[N+]1([O-])[C@@H]2CC(OC(=O)[C@H](CO)c3ccccc3)C[C@H]1[C@@H]1O[C@@H]12 (some centres unmarked) [Scopolamin-N-oxide hydrobromide],−0.1983,–
C=C[C@]12CN(C)[C@@H]3[C@H]4CO[C@H](C[C@H]41)[C@]1(C(=O)Nc4ccccc41)[C@@H]32 [Gelsemine],1.601,–
CCN(CC)CCNc1ccc(CO)c2sc3ccccc3c(=O)c12 [Hycanthone],–,−0.2904
Cc1ncc([N+](=O)[O-])n1CCO [Metronidazole],–,1.259
CN(C)CCCC1(c2ccc(F)cc2)OCc2cc(C#N)ccc21 (centres unmarked) [Citalopram Hydrobromide],–,−0.5169
COc1cc(N)c(Cl)cc1C(=O)NC1CCN(CCCOc2ccc(F)cc2)CC1OC (centres unmarked) [Cisapride],–,0.3436
Colistin sulfate,−0.4139,–
